Data published in US11129870B2, “Compositions and methods for uncoupling TrkB receptor from PLC gamma 1 for the treatment of epilepsy and anxiety-like disorder” (DUKE UNIVERSITY, priority 2010, dated 2021).
Where no end group is shown, it is not given here. [ ]: non-standard residue; d: D form. pY = N[C@@H](Cc1ccc(OP(=O)(O)O)cc1)C(=O)O

Experiments:
[1] = test system: TrkB-mediated activation of PLCγ1; assay: BDNF-mediated activation of PLCγ1 (p-PLCγ1 Y783 western blot) in cultured cortical neurons; assay type: cell-based, rat; conditions: for BDNF-mediated increase of p-PLC γ-1/PLC γ-1 ratio (quantified, FIG. 10): 10-120 min pretreatment, 120 min p<0.05; for inhibition of BDNF-mediated increased p-PLCγ1 783: preincubation 60-120 min, BDNF 10 ng/ml
[2] = test system: ERK; assay: BDNF-mediated increase of p-ERK in cultured cortical neurons (western blot); assay type: cell-based, rat; conditions: 10 μM, 10-120 min pretreatment
[3] = test system: PLCγ1; assay: p-PLCγ1 in brain of naive mice after intravenous peptide (western blot); assay type: in vivo, mouse
Description: An important issue with respect to usefulness of Tat-pTRKBY816 is whether, following peripheral administration, the peptide can inhibit PLCγ1 activation in the brain in vivo. To test this idea, adult C57/B6 mice underwent tail vein injection of vehicle (normal saline [NS]) or Tat-scrambled-pTrkY816 or Tat-pTrkBY816 (10 mg/kg, 2 mice per group). Animals were sacrificed 3 hours post administration, the hippocampus dissected and homogenate prepared for western blotting. […] These findings support the assertion that the peptide passes through the blood brain barrier and inhibits PLCγ1 activation in vivo.
Animals were anesthetized with pentobarbital (200 mg/kg i.p.) and decapitated, and the head was quickly immersed in liquid nitrogen for 4 s to rapidly cool the brain. The hippocampi were rapidly dissected on ice and homogenized in RIPA buffer, incubated on ice for 15 min, and centrifuged at 200,000×g for 10 min at 4° C. The supernatant was collected and stored at −80° C. until further analysis. […] The immunoreactivity of individual bands on western blots was measured by ImageJ software (National Institutes of Health) and normalized to PLCγ1, Akt or ERK contents. Equivalent protein loading among samples was monitored by β-actin (1:10000; Sigma) levels. […]

[4] = test system: Akt; assay: p-Akt in hippocampal lysates of naive mice after i.v. peptide; assay type: in vivo, mouse; conditions: 10 mg/kg i.v., 3 hr
Description: Animals were anesthetized with pentobarbital (200 mg/kg i.p.) and decapitated, and the head was quickly immersed in liquid nitrogen for 4 s to rapidly cool the brain. The hippocampi were rapidly dissected on ice and homogenized in RIPA buffer, incubated on ice for 15 min, and centrifuged at 200,000×g for 10 min at 4° C. The supernatant was collected and stored at −80° C. until further analysis. TrkB was immunoprecipitated using TrkB antibody (1:1000, Millipore) and the lysates were incubated with 100 μL of protein A-Sepharose beads (Roche) overnight in 4° C. The beads/immune complexes were pelleted in a microcentrifuge and then resuspended in RIPA buffer and this procedure was repeated two additional times before adding 2×SDS PAGE sample buffer and boiled. After SDS PAGE, the gels were probed with TrkB and PLCγ1 antibody (1:1000, Cell signaling). Western blotting was conducted as previously described (He et al., 2010). Cell lysate and hippocampal homogenate were probed with p-PLCγ1 (pY783), PLCγ1, p-Akt (pS473), Akt, p-ERK (p44/p42) and ERK (1:1000, Cell signaling). The immunoreactivity of individual bands on western blots was measured by ImageJ software (National Institutes of Health) and normalized to PLCγ1, Akt or ERK contents. Equivalent protein loading among samples was monitored by β-actin (1:10000; Sigma) levels. […]

[5] = test system: anxiety-like behavior; assay: Light/dark box test of anxiety-like behavior 8 weeks after SE; assay type: in vivo, mouse; conditions: 8 weeks post-SE; Scr vs PBS controls, pY816 vs Scr
Description: It was therefore tested whether this SE-induced behavioral abnormality could also be prevented by treatment with pY816 initiated following SE. To address this question, following completion of video-EEG recording during days 29-42, anxiety-like behavior was assessed using the light-dark emergence test (Bourin, M. et al., (2003) Eur J Pharmacol 463:55-65).
Specifically, a plexiglas arena (40×40×40 cm) was placed in a room with homogenous illumination (˜300 lux). The arena was subdivided into sixteen 10×10 cm squares by lines marked on the floor. Each mouse was placed in the center of the open field and allowed to explore freely the apparatus for 5 minutes. The apparatus ([…]) consisted of two acrylic compartments. The dark compartment (30×40 cm) and light compartment (40×40×40 cm, brightly illuminated at 600 lux) were separated by a divider with a 5.5×5.5 cm opening at floor level. Mice were placed into the dark side and allowed to move freely between the two chambers with the door open for 5 minutes. During behavior tests, a video camera was mounted directly above the arena to monitor animal activity and movement. An investigator unaware of the treatment reviewed the video and recorded: 1) line crossing (frequency of crossing grid lines with all four paws) and the frequency of rearing (standing on hind legs or leaning against the walls of the arena) to assess locomotor activity in open field test; and 2) the latency to first entry into lighted compartment (entering the lighted side with all four paws) and the total time spent on the lighted side to assess anxiety-like behavior in light/dark box test.
Following completion of video-EEG monitoring for recurrent seizures, all KA-infused mice were subjected to open field and light/dark box tests at 8 weeks post-SE. Control animals underwent infusion of PBS into the amygdala and subsequently i.v. infusion of Scr or pY816 peptide and were tested 8 weeks after PBS infusion. No differences were found between Scr and pY816 treated control animals and these groups were combined for analyses.

[6] = test system: hippocampal neurons (CA3b); assay: NeuN and GFAP immunostaining of hippocampal CA3b 10 weeks after SE; assay type: in vivo, mouse
Source text: Neurons and astrocytes were visualized using antibodies against neuronal nuclei (mouse monoclonal to NeuN, 1:500; Millipore) and glial fibrillary acidic protein (rabbit polyclonal to GFAP, 1:1000; Sigma) detected with Alexafluor 488 coupled anti-mouse and Alexafluor 594 coupled anti-rabbit secondary antibodies (Molecular Probes), respectively. Images were captured using a Leica TCS SL confocal microscopy system equipped with a 63× oil-immersion objective lens. NeuN-positive cell counting was performed by an investigator blinded to the genotype and treatment conditions with ImageJ software (Ferreira, T. et al., (2011). The Image J User Guide) in a 260×260 μm field within the CA3b pyramidal cell layer. Mean counts were obtained from two adjacent rostral and two adjacent middle hippocampal sections ipsilateral to the infused amygdala.
Ten weeks following SE, mice were anesthetized with pentobarbital (200 mg/kg, i.p.) and underwent intra-cardiac perfusion with PBS containing heparin (5 U/ml) followed by 4% paraformaldehyde. Brains were removed, frozen by slow immersion in isopentane chilled in dry ice, cryoprotected, and sectioned. Serial 40 μm coronal sections were cut through the forebrain spanning the entire hippocampus. Adjacent sections at two levels relative to bregma (˜1.68 mm posterior designated “rostral”) or (˜2.32 mm posterior designated “middle”) were stained for NeuN and GFAP as previously described (Mouri, G. et al., (2008) Brain Res 1213:140-151) and mean counts of NeuN positive cells were obtained from two adjacent rostral and two adjacent middle hippocampal sections ipsilateral to the infused amygdala by an observer blinded to treatment.

Substance	inhibition of BDNF-mediated activation of PLCγ1 (pPLCγ1 783 immunoreactivity) ([1]; 0.1 μM, 90 mins preincubation, BDNF 10 ng/ml 15 mins)	inhibition of BDNF-induced increase of pPLCγ1 783 ([1]; 1 μM, 90 mins preincubation, BDNF 10 ng/ml 15 mins)	BDNF-mediated increase of p-PLC γ-1/PLC γ-1 ratio (quantified, FIG. 10) ([1]; 10 μM)	inhibition of BDNF-mediated PLCγ1 activation ([1]; 10 μM, 60 min preincubation, compared to Scr) [%]	inhibition of BDNF mediated PLCγ1 activation ([1]; 10 μM, 90 min preincubation, compared to Scr) [%]	inhibition of BDNF-induced increase of pPLCγ1 783 ([1]; 10 μM, 90 mins preincubation, BDNF 10 ng/ml 15 mins)	inhibition of BDNF-mediated PLCγ1 activation ([1]; 10 μM, 120 min preincubation, compared to Scr) [%]	inhibition of BDNF-mediated increased p-PLCγ1 783 ([1]; 10 μM)	BDNF-mediated increase of the p-ERK/ERK ratio (quantified, FIG. 12) [2]	reduction of p-PLCγ1 (pY783) immunoreactivity ([3]; 10 mg/kg i.v., 3 hr, hippocampal lysates, in comparison to Scr) [%]	phospho-PLCγ1 in brain homogenate ([3]; 10 mg/kg tail vein, 3 hours post administration, vs saline or scrambled peptide)	p-Akt in hippocampal lysates [4]	latency to enter the lighted compartment [5]	time spent in lighted compartment [5]	reactive gliosis (enlarged GFAP-immunoreactive cells) in CA3b [6]	reduction of neuron loss ([6]; compared to Scr treatment) [%]	reduction of neurons (NeuN immunoreactive cells) in CA3b hippocampus ([6]; compared to PBS-infused controls) [%]
YGRKKRRQRRR-LQNLAKASPVpYLDI (YGRKKRRQRRRLQNLAKASPV[pY]LDI) [pY816]	did not inhibit	limited the BDNF-induced increase of pPLCγ1 783 in a concentration dependent manner	inhibited the BDNF-mediated increase of p-PLC γ-1/PLC γ-1 ratio in a time dependent manner	68.2	79.3	limited the BDNF-induced increase of pPLCγ1 783 in a concentration dependent manner	94.5	inhibited BDNF-mediated increased p-PLCγ1 783	Neither the Phospho-Tat-TrkBY816 nor the Scr-phospho-Tat-TrkBY816 peptide inhibited	~50	reduced the phosphor-PLCγ1	neither p-Akt nor p-ERK was affected	significantly reduced latency	spent increased time	attenuated	~30	–
YGRKKRRQRRRLVApYQLKIAPNDLS (YGRKKRRQRRRLVA[pY]QLKIAPNDLS) [Scr, reference compound]	–	–	ineffective	–	–	–	–	no inhibition was evident	Neither the Phospho-Tat-TrkBY816 nor the Scr-phospho-Tat-TrkBY816 peptide inhibited	–	–	–	prolonged latency	spent less time	–	–	~50
